Laboratory results taken from patent KR20130087877A, “피부미백, 항산화 및 ppar 활성을 갖는 신규 화합물 및 이의 의학적 용도” (부산대학교 산학협력단, priority 2012, dated 2013).

Columns and labels:
[1] = test system: ROS generated in vascular endothelial cells (혈관내피세포(YPEN-1)); experiment: In vitro ROS scavenging activity, DCFDA assay in YPEN-1 vascular endothelial cells; format: cell-based, rat; conditions: YPEN-1 cells, SIN-1 50 μM pretreatment 1 h, compared with positive control Trolox, Figure 1
[2] = test system: mushroom-derived tyrosinase (버섯 유래 티로시나아제); experiment: Tyrosinase inhibition (dopachrome formation from L-tyrosine); format: biochemical; conditions: 1 mM L-tyrosine, pH 6.5, 25℃, 30 min, 492 nm; compared with positive control kojic acid; Figure 2
[3] = biological target: T1, PPARα (Homo sapiens, UniProt Q07869); experiment: PPAR analysis, PPARα (Fluormone Pan-PPAR Green competition, competitive activation rate); conditions: final sample concentration 100 μM; compared with positive control fenofibrate; Figure 3
T1 sequence (Q07869 239-466 limits assumed): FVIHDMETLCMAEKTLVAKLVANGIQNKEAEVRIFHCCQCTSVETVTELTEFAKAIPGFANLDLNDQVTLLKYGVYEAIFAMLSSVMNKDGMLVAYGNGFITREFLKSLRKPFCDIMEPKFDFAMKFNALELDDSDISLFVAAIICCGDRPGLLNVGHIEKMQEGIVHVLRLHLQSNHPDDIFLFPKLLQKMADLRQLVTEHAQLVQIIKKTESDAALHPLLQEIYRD

[4] = biological target: T2, PPARγ (Homo sapiens, UniProt P37231); experiment: PPAR analysis, PPARγ (Fluormone Pan-PPAR Green competition, competitive activation rate); format: binding; conditions: final sample concentration 100 μM; compared with positive control rosiglitazone; Figure 4
T2 sequence (P37231 238-503 limits assumed): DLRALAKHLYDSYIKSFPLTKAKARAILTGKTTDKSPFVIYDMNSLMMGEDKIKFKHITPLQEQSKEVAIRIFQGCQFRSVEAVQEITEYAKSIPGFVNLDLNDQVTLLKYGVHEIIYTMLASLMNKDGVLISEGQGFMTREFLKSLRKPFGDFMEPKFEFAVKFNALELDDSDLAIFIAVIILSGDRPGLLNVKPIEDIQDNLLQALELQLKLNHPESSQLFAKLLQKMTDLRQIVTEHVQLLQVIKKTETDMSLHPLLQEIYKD

[5] = test system: PPARα and PPARγ (PPARα 및 PPARγ); experiment: PPAR analysis, PPARα and PPARγ taken together; format: binding; conditions: final sample concentration 100 μM

| PPARα activation (competitive activation rate), in words [3] | Structure (SMILES) | ROS scavenging effect [1] | further results |
| --- | --- | --- | --- |
| – | CC(=O)N/C(=C\c1ccc(O)c(O)c1)C(=O)O [화합물 14, (Z)-2-Acetamido-3-(3,4-dihydroxyphenyl)acrylic acid] | 양성대조군인 트롤록스(Trolox)만큼 소거하는 효과가 큰 | – |
| – | NC(=O)N/N=C/c1ccc(O)c(O)c1 [화합물 2, (E)-2-(3,4-Dihydroxybenzylidene)hydrazinecarboxamide] | 양성대조군인 트롤록스(Trolox)만큼 소거하는 효과가 큰 | – |
| – | NC(=O)N/N=C/c1ccc(O)cc1 [화합물 1, (E)-2-(4-Hydroxybenzylidene)hydrazinecarboxamide] | – | tyrosinase inhibitory activity [2]: 양성대조군인 코지산(Kojic Acid)과 유사한 티로시네이즈 억제 활성 |
| – | COc1cc(/C=C(\NC(C)=O)C(=O)O)ccc1O [화합물 16, (Z)-2-Acetamido-3-(4-hydroxy-3-methoxyphenyl)acrylic acid] | 양성대조군인 트롤록스(Trolox)만큼 소거하는 효과가 큰 | – |
| – | CCOc1cc(/C=C(\NC(C)=O)C(=O)O)ccc1O [화합물 17, (Z)-2-Acetamido-3-(3-ethoxy-4-hydroxyphenyl)acrylic acid] | 양성대조군인 트롤록스(Trolox)만큼 소거하는 효과가 큰 | – |
| 양성대조군인 페노피브레이트보다 매우 뛰어난 PPARα 활성화제 | NC(=O)N/N=C/c1ccccc1O [화합물 10, (E)-2-(2-Hydroxybenzylidene)hydrazinecarboxamide] | – | – |
| 양성대조군인 페노피브레이트보다 매우 뛰어난 PPARα 활성화제 | CC(=O)N/C(=C\c1ccc(O)cc1O)C(=O)O [화합물 15, (Z)-2-Acetamido-3-(2,4-dihydroxyphenyl)acrylic acid] | – | PPARγ activation (competitive activation rate), in words [4]: 양성대조군인 로지글리타존보다 뛰어난 PPARγ 활성화제; simultaneous activation of PPARα and PPARγ [5]: PPARα 및 PPARγ를 동시에 활성화할 수 있는 활성화제 |
| 양성대조군인 페노피브레이트보다 매우 뛰어난 PPARα 활성화제 | CC(=O)N/C(=C\c1ccccc1O)C(=O)O [화합물 23, (Z)-2-Acetamido-3-(2-hydroxyphenyl)acrylic acid] | – | PPARγ activation (competitive activation rate), in words [4]: 양성대조군인 로지글리타존보다 뛰어난 PPARγ 활성화제; simultaneous activation of PPARα and PPARγ [5]: PPARα 및 PPARγ를 동시에 활성화할 수 있는 활성화제 |
| – | COc1cc(/C=C(\NC(C)=O)C(=O)O)cc(OC)c1O [화합물 25, (Z)-2-Acetamido-3-(4-hydroxy-3,5-dimethoxyphenyl)acrylic acid] | 양성대조군인 트롤록스(Trolox)만큼 소거하는 효과가 큰 | – |
